Tests used:
[1] = Clearance in mouse at 1 mg/kg, iv; format: ADME, organism-based; settings: in vivo
[2] = Volume of distribution at steady state in mouse at 1 mg/kg, iv; format: ADME, organism-based; settings: in vivo, read-out: Vdss
[3] = Half-life in mouse at 1 mg/kg, iv; format: ADME, organism-based; settings: in vivo
[4] = Cmax in mouse at 10 mg/kg, po; format: ADME, organism-based; design: dose 10 mg/kg, route po; settings: in vivo
[5] = AUC (0 to last) in mouse at 10 mg/kg, po; format: ADME, organism-based; design: time 0 - last, dose 10 mg/kg, route po; settings: in vivo
[6] = Oral bioavailability in mouse at 10 mg/kg; format: ADME, organism-based; settings: in vivo
KARPAS-299 = assay: cells; settings: Homo sapiens
Description: Antiproliferative activity against human KARPAS-299 cells harbouring wild type ALK assessed as reduction in cell viability by Celltitre-Glo luminescent assay

BaF3 [7] = assay: cells; settings: Mus musculus
Description: Antiproliferative activity against mouse BaF3 cells harbouring ALK wild type assessed as reduction in cell viability by Celltitre-Glo luminescent assay

BaF3 [8] = assay: cells; settings: Mus musculus; remark: listed apart in the source
Description: Antiproliferative activity against mouse BaF3 cells harbouring ALK L1196M mutant assessed as reduction in cell viability by Celltitre-Glo luminescent assay

BaF3 [9] = assay: cells; settings: Mus musculus; remark: listed apart in the source
Description: Antiproliferative activity against mouse BaF3 cells harbouring ALK C1156Y mutant assessed as reduction in cell viability by Celltitre-Glo luminescent assay

[10] = Clearance in Balb/c nude mouse at 1 mg/kg, iv; format: ADME, organism-based; settings: in vivo

Row | Structure (SMILES) | clearance [1] | Vd [2] | half-life [3] | Cmax [4] | AUC(0-t) [5] | bioavailability [6] | IC50 (KARPAS-299) | IC50 (BaF3 [7]) | IC50 (BaF3 [8]) | IC50 (BaF3 [9]) | clearance [10]
1 | COc1cc(N2CCC3(CCNCC3)CC2)ccc1Nc1ncc(Cl)c(Nc2ccccc2P(C)(C)=O)n1 | 20.1 mL/min/kg | 1.3 L/kg | 3.6 h | 977 ng/mL | 1630 ng·h/mL | 18.5% | 77 nM |  |  |  | 
2 | COc1cc(N2CCC3(CCN(C)CC3)CC2)c(Cl)cc1Nc1ncc(Cl)c(Nc2ccccc2P(C)(C)=O)n1 |  |  |  |  |  |  | 87 nM | 10 nM | 12 nM | 15 nM | 
3 | COc1cc(N2CCC3(CCN(C)CC3)CC2)ccc1Nc1ncc(Cl)c(Nc2ccccc2P(C)(C)=S)n1 |  |  |  |  |  |  | 30 nM | 5 nM | 8 nM | 12 nM | 61 mL/min/kg

Further lines, with some results ahead:

Row | clearance [1] | Vd [2] | half-life [3] | Cmax [4] | AUC(0-t) [5] | bioavailability [6] | IC50 (KARPAS-299) | IC50 (BaF3 [7]) | IC50 (BaF3 [8]) | IC50 (BaF3 [9]) | Structure (SMILES) | clearance [10]
4 | 69 mL/min/kg | 3.1 L/kg | 1.1 h | 28.7 ng/mL | 27.7 ng·h/mL | 1.2% | 126 nM |  |  |  | COc1cc(N2CCC3(CNC3)C2)ccc1Nc1ncc(Cl)c(Nc2ccccc2P(C)(C)=O)n1 | 
5 |  |  |  |  |  |  | 62 nM |  |  |  | COc1cc(N2CCC3(CCN(C)CC3)CC2)c(C)cc1Nc1ncc(Cl)c(Nc2ccccc2P(C)(C)=O)n1 | 
6 |  |  |  |  |  |  | 20 nM | 8 nM | 18 nM | 17 nM | COc1cc(N2CCC3(CCN(C)CC3)CC2)ccc1Nc1ncc(Cl)c(Nc2ccc(F)cc2P(C)(C)=O)n1 | 

— ChEMBL document CHEMBL5143665, “Discovery and preclinical evaluations of WX-0593, a novel ALK inhibitor targeting crizotinib-resistant mutations” (Bioorg Med Chem Lett, 2022)
